Source: paper PMC4279406, “Simultaneous targeting of PI3Kδ and a PI3Kδ-dependent MEK1/2-Erk1/2 pathway for therapy in pediatric B-cell acute lymphoblastic leukemia” (Oncotarget, 2014)

How the values were obtained:
Format in all cases: cell-based, human
Raji cells = experiment: Signaling by Western blot
Experimental: (§1) Raji and SU-DHL-6 cells were treated with X-370 for 1 h (left panel) or treated with 0.5 μM X-370 for indicated times (middle panel). Right panel, Raji cells were incubated in fresh medium following treatment with 0.5 μM X-370 for 1 h. Indicated proteins were detected. (B) Raji-R (the rituximab-resistant derivatives of Raji cells) cells were resistant to X-370. The activity of X-370 on the proliferation of Raji parent and Raji-R cells was determined by CCK-8 assay as described in the methods section. (C) X-370 blocked phosphorylation of Akt but not Erk1/2 in Raji-R cells. Raji-R cells were treated with X-370 for 1h and indicated proteins were detected. Data shown are representative from three independent experiments.
(§2) Figure 5 Inhibition of Erk1/2 phosphorylation by X-370 contributed to its antiproliferative activity (A-C) X-370 inhibited Erk1/2 phosphorylation via PI3K-PDK1-MEK1/2 cascade but not the PI3K-Gab1 positive feedback loop. (A) Raji and SU-DHL-6 cells were exposed to 1 μM X370 for 3 h and protein fraction from cellular membrane was separated using Native Membrane Protein Extraction Kit and probed. WCL: whole cell lysate. (B) Inhibition of PDK1 or MEK1/2 abrogated Erk1/2 phosphorylation. Cells were treated with pharmacological inhibitors of Raf (AZ 628, PLX4032), MEK1/2 (AZD6244), p90RSK (BI-D1870), PI3Kδ (X-370), PDK1 (BX-912), Akt (MK-2206), mTOR (AZD8055) or mTORC1 (Rapamycin) respectively and indicated proteins were detected. (C) X-370 disrupted the association between PDK1 and MEK1/2. Raji cells were treated with 1 μM X370 for 1 h and cell lysates were immunoprecipitated with anti-PDK1 antibody and indicated proteins were detected. WCL: whole cell lysate. (D-F) Inhibition of Erk1/2 phosphorylation was required for the anti-proliferative activity of X-370. (D) Raji cells ectopically expressing a constitutively activated phospho-mimic MEK1 mutant (MEK1 S202D/S204D or MEK DD) were incubated with X-370 or AZD6244 for 1 h and then subjected to Western blot. (E) Raji and Raji MEK DD cells were treated with X-370 for 72 h and cell proliferation was detected by CCK-8 assay. (F) Raji MEK DD cells were treated with X-370 and AZD6244 and cell proliferation was detected by CCK-8 assay. Data were show as mean ± SD of three independent experiments. *: p < 0.05 determined by t-tests at each data point. […]
(§3) Cells were treated as indicated conditions and then subjected to lysate to perform standard Western blot as described previously1. Briefly, whole-cell lysates and SDS-loading buffer diluted cell fractions were analyzed on SDS-PAGE gels. Transfer to nitrocellulose membranes, nonfat milk blocking, probing with indicated primary antibodies and the corresponding HRP-conjugated second antibodies.
(§4) Chemiluminescence were performed and captured using ImageQuant LAS 4000 (GE healthcare Life Sciences, Piscataway, NJ, USA) and band intensity was measure both with ImageQuant™ TL (GE Healthcare Life Sciences) 2. […]
(§5) (also on this page, place not known: PI3Kδ -dependent MEK1/2 - B -cell previously 1. whole -cell SDS -loading SDS -PAGE HRP -conjugated (G E A B Val828 Trp760 Thr750 Met752 Tyr813 affinity pocket specificity pocket hinge Glu826 CAL-101 X-370) […]
(§6) (1 picture or pasted object on this page, not shown here)

SU-DHL-6 cells = experiment: Signaling by Western blot
Experimental: as §1, §2, §3, §4, §5, §6

Raji MEK DD cells [1] = experiment: Erk1/2 phosphorylation in Raji cells expressing MEK DD (Western blot); settings: 1 h
Experimental: as §2, with “(D-F) Inhibition of Erk1/2 phosphorylation was required for the anti-proliferative activity of X-370. (D) Raji cells ectopically expressing a constitutively activated phospho-mimic MEK1 mutant (MEK1 S202D/S204D or MEK DD) were incubated with X-370 or AZD6244 for 1 h and then subjected to Western blot.” left out

Raji MEK DD cells [2] = experiment: Proliferation of Raji MEK DD cells (CCK-8); settings: Raji MEK DD; 1 μM, 72 h, CCK-8
Experimental: as §2, with “(C) X-370 disrupted the association between PDK1 and MEK1/2.” left out, “WCL: whole cell lysate. (D-F) Inhibition of Erk1/2 phosphorylation was required for the anti-proliferative activity of X-370. (D) Raji cells ectopically expressing a constitutively activated phospho-mimic MEK1 mutant (MEK1 S202D/S204D or MEK DD) were incubated with X-370 or AZD6244 for 1 h and then subjected to Western blot.” left out
luciferase. Raji cells expressing MEK DD or luciferase were incubated with 1 μM AZD6244 or DMSO control respectively for 72 h, and then cell viability were assessed by CCK-8 reagent. […]

[3] = system: Raji cells expressing luciferase; experiment: Viability of Raji cells expressing luciferase (CCK-8); settings: 1 μM, 72 h
Experimental: Cell viability was assessed using Cell Counting Kit (CCK-8, Dojindo, Japan) following the manufacturer's protocol and OD values were measured with a Spectramax M5 plate reader (Molecular Devices, Sunnyvale, CA)[45].
Figure S6: CAL-101 inhibited both Akt and Erk1/2 signaling in Raji and SU-DHL -6 cells. Raji and SU-DHL-6 cells were incubated with CAL-101 for an hour and then collected to perform Western blot, the […]
luciferase. Raji cells expressing MEK DD or luciferase were incubated with 1 μM AZD6244 or DMSO control respectively for 72 h, and then cell viability were assessed by CCK-8 reagent. NS indicated no significance. Data were show as mean + SD of three independent experiments. […]

Rh30-Myr-p110δ cells = experiment: Akt phosphorylation in isogenic Rh30-Myr-p110 cells (Western blot); settings: panel of isogenic Rh30-Myr-p110α/β/γ/δ cells, 1 h
Text: To assess the selectivity of X-370 in the context of an isogenic cellular background, we generated a panel of Rh30 human rhabdomyosarcoma cell lines each of which stably expresses a single myristoylated (Myr)-epitope tagged p110 human class I PI3K catalytic subunit, termed as Rh30-Myr-p110α, Rh30-Myr-p110β, Rh30-Myr-p110γ or Rh30-Myr-p110δ. In these cells, endogenous PI3K is not activated under serum-free culture conditions, whereas the ectopically expressed p110 isoforms are membrane-anchored and constitutively active due to myristoylation at N-terminal. Utilizing this cell panel, isoform-specific PI3K activity can be determined for any given inhibitor[25]. These cells were treated with X-370 and phosphorylated Akt was detected as the readout of PI3K activity. X-370 inhibited phosphorylation of Akt at both Thr308 and Ser473 in a dose-dependent manner in four tested cell lines (Figure 2A). […] Similar property was also observed in CAL-101 (Figure S2).
Cell lysates were probed with indicated antibodies. The IC50 values were calculated based on relative band intensity measured with ImageQuant™ TL (GE Healthcare Life Sciences, Piscataway, NJ) (B). Data shown are mean values from three independent experiments. (C, D, E, F) X-370 blocked stimuli-triggered PI3Kδ activation. MEF cells and THP-1 were starved in serum-free medium for 12 h or 4 h respectively and X-370 were added for an additional 1 h treatment following stimulation of IGF-1 at 100 ng/ml for MEF cells (C), LPA at 10 μM for MEF cells (D), MCP-1 at 100ng/ml for THP-1 (E) and M-CSF at 50 ng/ml for THP-1 (F). Similar results were derived from 3 independent experiments. TEXT PRINTED IN THE PICTURE: (B) X-370: IC50 (μM) in Rh30-Myr-p110s, Akt pT308, PI3Kα: 0.68; IC50 (μM) in Rh30-Myr-p110s, Akt pT308, PI3Kβ: 0.4; IC50 (μM) in Rh30-Myr-p110s, Akt pT308, PI3Kγ: 0.46; IC50 (μM) in Rh30-Myr-p110s, Akt pT308, PI3Kδ: 0.032; IC50 (μM) in Rh30-Myr-p110s, Akt pS473, PI3Kα: 0.53; IC50 (μM) in Rh30-Myr-p110s, Akt pS473, PI3Kβ: 0.29; IC50 (μM) in Rh30-Myr-p110s, Akt pS473, PI3Kγ: 0.23; IC50 (μM) in Rh30-Myr-p110s, Akt pS473, PI3Kδ: 0.02 DOUBTS OF THE COPYIST ABOUT THIS PICTURE: Panel B prints no substance label in the table itself; the label X-370 is taken from the other panels of the same picture, where it is the only substance printed. […]
as §3, §4, §5
(1 picture or pasted object on this page, not shown here) […]
in serum-free medium for 12 h and then incubated with serially diluted CAL -101 for an additional 1 h.
Cell lysates were probed with indicated antibodies. The IC50 values were calculated based on relative band intensity measured with ImageQuant™ TL (GE Healthcare Life Sciences, Piscataway, NJ). Data shown are mean values from three independent experiments.
Table S1: Inhibitory activity of X-370 against protein kinases […]
kinome at 10 μM. The relative kianse activity left in the presence of 10 μM were shown (Mi llipore […]
Kinase activity (% of control) Kinase activity (% of control) Kinase activity (% of control) […]
CDK1/cyclinB 97 Lck activated 89 Ret 125 […]

| Compound | phosphorylated Erk1/2, panel of pathway inhibitors (Raji cells; Raji (Figure 5B)) | phosphorylated Erk1/2, panel of pathway inhibitors (SU-DHL-6 cells; SU-DHL-6 (Figure 5B)) | Erk1/2 phosphorylation (Raji MEK DD cells [1]) | antiproliferative activity alone (Raji MEK DD cells [2]) | antiproliferative activity alone [3] | selectivity against PI3Kδ-mediated signaling at cellular level (Rh30-Myr-p110δ cells) | phosphorylation of Akt and Erk1/2 (Raji cells; Raji, 1 h) | phosphorylation of Akt and Erk1/2 (SU-DHL-6 cells; SU-DHL-6, 1 h) |
| --- | --- | --- | --- | --- | --- | --- | --- | --- |
| Cn1cnc2c(F)c(Nc3ccc(Br)cc3Cl)c(C(=O)NOCCO)cc21 [AZD6244] | down-regulated | down-regulated | abolished | little antiproliferative activity | little antiproliferative activity |  |  |  |
| CC[C@H](Nc1ncnc2[nH]cnc12)c1nc2cccc(F)c2c(=O)n1-c1ccccc1 [CAL-101, idelalisib, reference compound] |  |  |  |  |  | highly selective | downregulated at low nanomolar concentrations | downregulated at low nanomolar concentrations |
